Assay results published in ChEMBL document CHEMBL5550165, “Novel quinoxaline analogs as telomeric G-quadruplex ligands exert antitumor effects related to enhanced immunomodulation” (Eur J Med Chem, 2024).
Calls of active or inactive are those of the source. The calls are words filed in the database; no cut-off is given here.

How the values were obtained:
MDA-MB-231 [1] = experiment: Induction of immunogenic cell death in human MDA-MB-231 cells assessed as increase in CRT expression incubated for 24 hrs by Alexa Fluor 647 flow cytometric assay; type: functional, cell-based
Quadruplex DNA = experiment: Stabilization of G-quadruplex 5-FAM-telomeric24 DNA-TAMRA-3 (unknown origin) assessed as change in melting temperature incubated for 2 hrs by FRET assay; type: nucleic-acid assay
MDA-MB-231 [2] = experiment: Induction of apoptosis in human MDA-MB-231 cells assessed as upregulation of cleaved caspase-3 expression at 1 to 4 uM incubated for 24 hrs by Western blot analysis; type: functional, cell-based; settings: dose 1-4 µM
[3] = Toxicity in BALB/c mouse implanted with mouse 4T1 cells assessed as histopathological change in heart at 10 mg/kg,ip every other day for 14 days by hematoxylin and eosin staining analysis; type: organism-based; settings: in vivo, 336 h, time 14 day
MDA-MB-231 [4] = experiment: Induction of DNA damage in human MDA-MB-231 cells assessed as upregulation of CHK2 phosphorylation at 4 uM by Western blot analysis; type: functional, cell-based; settings: TDE = time-dependent effect

In the case of CN(C)CCN(C)c1ccc(-c2nc3ccc(C(F)(F)F)cc3nc2-c2ccc(N(C)CCN(C)C)cc2)cc1, the Activity (MDA-MB-231 [1]) is reported as “Dose-Dependent Effect”, the ΔTm (Quadruplex DNA) is reported as 6.1 °C and the Activity (MDA-MB-231 [2]) is reported as “Active”. The Activity [3] was “Non-Toxic” and the Activity (MDA-MB-231 [4]) was “Tde”.
